The text below walks through data of patent US9365522B2, “Pyrazole amide derivative” (AMGEN INC., priority 2015, dated 2016).

The target of this assay is T1, ligand binding domain of human ROR gamma (Homo sapiens, UniProt P51449).
T1 construct: NM_001001523; expressed in transfected cells; host or cells: HEK293T
T1 sequence (P51449 247-497 isoform P51449-2): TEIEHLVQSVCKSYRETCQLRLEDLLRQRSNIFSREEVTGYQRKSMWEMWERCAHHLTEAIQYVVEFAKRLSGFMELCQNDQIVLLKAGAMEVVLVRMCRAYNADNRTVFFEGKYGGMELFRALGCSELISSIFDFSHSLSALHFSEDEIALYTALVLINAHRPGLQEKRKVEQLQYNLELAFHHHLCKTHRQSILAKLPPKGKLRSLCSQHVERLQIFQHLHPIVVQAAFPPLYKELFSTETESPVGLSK
Kind of assay: ROR gamma reporter gene assay (GAL4-RORγ LBD luciferase, Dual-Glo). Type of assay: cell-based. The following applies: HEK293T cells transfected with pM-ROR gamma, 8 concentrations 3.5 nM to 10.5 μM, 24 h incubation; read-out: result (pIC50, inhibition of RORγ transcriptional activity) (converted). The essentials: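 Inhibition of RORγ-driven transcription was measured in HEK293T cells expressing a GAL4 fusion of the human RORγ LBD (aa 247-497), with renilla luciferase as internal control. Cells in 10% charcoal-stripped serum received compound (3.5 nM–10.5 μM) for 24 h.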
Background: Reporter assays use an easily measured gene product as a stand-in for the process of interest.
Take `O=C(CN(CC1(C(F)(F)F)CC1)C(=O)c1cnn(C23CCC(C(=O)O)(CC2)CC3)c1C(F)(F)F)c1c(Cl)cncc1Cl` [Example 329, 4-(4-((2-(3,5-dichloropyridin-4-yl)-2-oxoethyl)-((1-(trifluoromethyl)cyclopropyl)methyl)carbamoyl)-5-(trifluoromethyl)pyrazol-1-yl)bicyclo[2.2.2]octane-1-carboxylic acid]: the IC50 is 14800 pM.
In the case of `C[C@]1(C(=O)O)CC[C@H](n2ncc(C(=O)N(CC(=O)c3c(Cl)cncc3Cl)CC3(C(F)(F)F)CC3)c2C(F)(F)F)CC1` [Example 330], the IC50 was 24000 pM.
Consider `CC(C)(C)[C@@H]1C[C@H]1N(CC(=O)c1c(Cl)cncc1Cl)C(=O)c1cnn([C@H]2CC[C@](C)(C(=O)O)CC2)c1C(F)(F)F` [Example 331, trans-4-(4-(((1R,2S)-2-tert-butylcyclopropyl)-(2-(3,5-dichloropyridin-4-yl)-2-oxoethyl)carbamoyl)-5-(trifluoromethyl)pyrazol-1-yl)-1-methylcyclohexane-1-carboxylic acid], for which the IC50 was 102000 pM.
Turning to `CC(COC(C)(C)C)N(CC(=O)c1c(Cl)cncc1Cl)C(=O)c1cnn([C@H]2CC[C@](C)(C(=O)O)CC2)c1C(F)(F)F` (stereo partly drawn) [Example 332, trans-4-(4-((2-(3,5-dichloropyridin-4-yl)-2-oxoethyl)-(1-((2-methylpropan-2-yl)oxy)propan-2-yl)carbamoyl)-5-(trifluoromethyl)pyrazol-1-yl)-1-methylcyclohexane-1-carboxylic acid], the IC50 was 513000 pM.
As for `CC1(C)[C@@H]2C[C@H](N(CC(=O)c3c(F)cncc3Cl)C(=O)c3cnn([C@H]4CC[C@](C)(C(=O)O)CC4)c3C(F)(F)F)C[C@@H]21` [Example 333, trans-4-(4-((2-(3-chloro-5-fluoropyridin-4-yl)-2-oxoethyl)((1R,3r,5S)-6,6-dimethylbicyclo[3.1.0]hexan-3-yl)carbamoyl)-5-(trifluoromethyl)-1H-pyrazol-1-yl)-1-methylcyclohexanecarboxylic acid], the IC50 was 17000 pM.
For `CC(C)(C)CN(CCc1c[nH]c2cccc(Cl)c12)C(=O)c1cnn([C@H]2CC[C@](C)(C(=O)O)CC2)c1C(F)(F)F` [Example 334, trans-4-(4-(2-(4-chloro-1H-indol-3-yl)ethyl-(2,2-dimethylpropyl)carbamoyl)-5-(trifluoromethyl)pyrazol-1-yl)-1-methylcyclohexane-1-carboxylic acid] the value was 56200 pM; for `CC1(C)[C@@H]2C[C@H](N(CC(=O)c3c(F)cncc3Cl)C(=O)c3cnn(C45CCC(C(=O)O)(CC4)CC5)c3C(F)(F)F)C[C@@H]21` [Example 335, 4-(4-((2-(3-chloro-5-fluoropyridin-4-yl)-2-oxoethyl)((1R,3r,5S)-6,6-dimethylbicyclo[3.1.0]hexan-3-yl)carbamoyl)-5-(trifluoromethyl)-1H-pyrazol-1-yl)bicyclo(2.2.2)octane-1-carboxylic acid], 12300 pM.
For `COc1cccc(Cl)c1C(O)CN(C(=O)c1cnn([C@H]2CC[C@](C)(C(=O)O)CC2)c1C(F)(F)F)C1CCC(C)(C)CC1` (stereo partly drawn) [Example 336, trans-4-(4-((2-(2-chloro-6-methoxyphenyl)-2-hydroxyethyl)-(4,4-dimethylcyclohexyl)carbamoyl)-5-(trifluoromethyl)pyrazol-1-yl)-1-methylcyclohexane-1-carboxylic acid] the value was 145000 pM; for `CC1(C)CCC(N(CC(=O)c2c(Cl)cc(F)cc2Cl)C(=O)c2cnn([C@H]3C[C@](C)(C(=O)O)C3)c2C(F)(F)F)CC1` [Example 339, trans-3-(4-((2-(2,6-dichloro-4-fluorophenyl)-2-oxoethyl)-(4,4-dimethylcyclohexyl)carbamoyl)-5-(trifluoromethyl)pyrazol-1-yl)-1-methylcyclobutane-1-carboxylic acid], 83200 pM; for `CC(C)[C@@H]1C[C@@H]1N(CC(=O)c1c(Cl)cncc1Cl)C(=O)c1cnn([C@H]2CC[C@](C)(C(=O)O)CC2)c1C(F)(F)F` [Example 340, trans-4-(4-((2-(3,5-dichloropyridin-4-yl)-2-oxoethyl)-((1S,2S)-2-propan-2-ylcyclopropyl)carbamoyl)-5-(trifluoromethyl)pyrazol-1-yl)-1-methylcyclohexane-1-carboxylic acid], 123000 pM.
`COc1cccc(Cl)c1[C@@H](O)CN(C(=O)c1cnn([C@H]2CC[C@](C)(C(=O)O)CC2)c1C(F)(F)F)[C@H]1C[C@@H]2[C@H](C1)C2(C)C` [Example 341, trans-4-(4-((2-(2-chloro-6-methoxyphenyl)-2-hydroxyethyl)((1R,3r,5S)-6,6-dimethylbicyclo[3.1.0]hexan-3-yl)carbamoyl)-5-(trifluoromethyl)-1H-pyrazol-1-yl)-1-methylcyclohexanecarboxylic acid]: the IC50 was 759000 pM.
For `COc1cccc(Cl)c1[C@H](O)CN(C(=O)c1cnn([C@H]2CC[C@](C)(C(=O)O)CC2)c1C(F)(F)F)[C@H]1C[C@@H]2[C@H](C1)C2(C)C` [Example 342, trans-4-(4-((2-(2-chloro-6-methoxyphenyl)-2-hydroxyethyl)((1R,3r,5S)-6,6-dimethylbicyclo[3.1.0]hexan-3-yl)carbamoyl)-5-(trifluoromethyl)-1H-pyrazol-1-yl)-1-methylcyclohexanecarboxylic acid] the value was 45700 pM.
For `CC1(C)[C@@H]2C[C@H](N(CCc3c[nH]c4cccc(Cl)c34)C(=O)c3cnn([C@H]4CC[C@](C)(C(=O)O)CC4)c3C(F)(F)F)C[C@@H]21` [Example 343, trans-4-(4-((2-(4-chloro-1H-indol-3-yl)ethyl)((1R,3r,5S)-6,6-dimethylbicyclo[3.1.0]hexan-3-yl)carbamoyl)-5-(trifluoromethyl)-1H-pyrazol-1-yl)-1-methylcyclohex anecarboxylic acid] the value was 31600 pM; for `CC(C)(C)OC1CC(CN(CC(=O)c2c(Cl)cncc2Cl)C(=O)c2cnn([C@H]3CC[C@](C)(C(=O)O)CC3)c2C(F)(F)F)C1` (stereo partly drawn) [Example 344, trans-4-(4-((2-(3,5-dichloropyridin-4-yl)-2-oxoethyl)-((3-((2-methylpropan-2-yl)oxy)cyclobutyl)methyl)carbamoyl)-5-(trifluoromethyl)pyrazol-1-yl)-1-methylcyclohexane-1-carboxylic acid], 1.58e+06 pM.
With `CC1(C)CCC(N(CC(=O)c2c(Cl)cc(F)cc2Cl)C(=O)c2cnn([C@H]3CC[C@](C)(C(=O)O)CC3)c2Cl)CC1` [Example 345, trans-4-(5-chloro-4-((2-(2,6-dichloro-4-fluorophenyl)-2-oxoethyl)-(4,4-dimethylcyclohexyl)carbamoyl)pyrazol-1-yl)-1-methylcyclohexane-1-carboxylic acid], the IC50 was 26300 pM.
Consider `CC(C)[C@H]1C[C@@H]1N(CC(=O)c1c(Cl)cncc1Cl)C(=O)c1cnn([C@H]2CC[C@](C)(C(=O)O)CC2)c1C(F)(F)F` [Example 346, trans-4-(4-((2-(3,5-dichloropyridin-4-yl)-2-oxoethyl)-((1S,2R)-2-propan-2-ylcyclopropyl)carbamoyl)-5-(trifluoromethyl)pyrazol-1-yl)-1-methylcyclohexane-1-carboxylic acid], for which the IC50 was 110000 pM.
`CC(C)c1c(C(=O)N(CC(=O)c2c(Cl)cc(F)cc2Cl)C2CCC(C)(C)CC2)cnn1[C@H]1CC[C@](C)(C(=O)O)CC1` [Example 347, trans-4-(4-((2-(2,6-dichloro-4-fluorophenyl)-2-oxoethyl)-(4,4-dimethylcyclohexyl)carbamoyl)-5-propan-2-ylpyrazol-1-yl)-1-methylcyclohexane-1-carboxylic acid]: the IC50 was 871000 pM.
For `CC(C)(C)SCCN(CC(=O)c1c(Cl)cc(F)cc1Cl)C(=O)c1cnn([C@H]2CC[C@](C)(C(=O)O)CC2)c1C(F)(F)F` [Example 348, trans-4-(4-(2-tert-butylsulfanylethyl-(2-(2,6-dichloro-4-fluorophenyl)-2-oxoethyl)carbamoyl)-5-(trifluoromethyl)pyrazol-1-yl)-1-methylcyclohexane-1-carboxylic acid] the value was 155000 pM; for `CC1(C)CCC(N(CCc2c[nH]c3cccc(Cl)c23)C(=O)c2cnn([C@H]3CC[C@](C)(C(=O)O)CC3)c2C(F)(F)F)CC1` [Example 349, trans-4-(4-(2-(4-chloro-1H-indol-3-yl)ethyl-(4,4-dimethylcyclohexyl)carbamoyl)-5-(trifluoromethyl)pyrazol-1-yl)-1-methylcyclohexane-1-carboxylic acid], 79400 pM; for `CC(C)(C)S(=O)(=O)CCN(CC(=O)c1c(Cl)cc(F)cc1Cl)C(=O)c1cnn([C@H]2CC[C@](C)(C(=O)O)CC2)c1C(F)(F)F` [Example 350, trans-4-(4-(2-tert-butylsulfonylethyl-(2-(2,6-dichloro-4-fluorophenyl)-2-oxoethyl)carbamoyl)-5-(trifluoromethyl)pyrazol-1-yl)-1-methylcyclohexane-1-carboxylic acid], 1.15e+06 pM.
For the compound `CC(C)(C)[S+]([O-])CCN(CC(=O)c1c(Cl)cc(F)cc1Cl)C(=O)c1cnn([C@H]2CC[C@](C)(C(=O)O)CC2)c1C(F)(F)F` (stereo partly drawn) [Example 351, trans-4-(4-(2-tert-butylsulfinylethyl-(2-(2,6-dichloro-4-fluorophenyl)-2-oxoethyl)carbamoyl)-5-(trifluoromethyl)pyrazol-1-yl)-1-methylcyclohexane-1-carboxylic acid], the IC50 is 7.24e+06 pM.
